From US20210113498A1, “TOPICAL AND TRANSDERMAL DELIVERY OF AN IRON CHELATOR TO PREVENT AND TREAT CHRONIC WOUNDS” (TAUTONA GROUP IP HOLDING COMPANY, L.L.C., priority 2018, published 2021)

Tests used:
[1] = systemic delivery (subcutaneous, intravenous, intramuscular) within approved dose limits; cited from earlier work
[2] = type: in vitro ADME, human
Excerpt: To study the capacity of an intradermal patch comprising an iron chelator, such as DFO, to deliver DFO into human dermis, a vertical Franz Diffusion Cell (FIG. 8) was used to evaluate the DIDP. Full thickness human skin samples obtained under Stanford University IRB approval were mounted between the two compartments of the diffusion cell with the stratum corneum facing the donor compartment. The DIDP was applied and isotonic phosphate buffer solution agitated with a magnetic stirrer and maintained at 37° C. by a circulating water jacket. Every hour, over the course of 15 hours, skin samples were removed, washed with phosphate buffer saline (PBS) and dried with an absorbent towel. The skin samples were frozen at −20° C. and cut with a microtome into 20 μm sections. The samples were analyzed for drug content spectrophotometrically at 560 nm (Shimadzu, Japan) and the relative DFO concentration was determined. Skin biopsies of the fresh full thickness skin samples used in the Franz cell experiment after DIDP application were processed for histology. Intracellular DFO-iron aggregates were made visible using ferrocyanide staining via a modified Prussian blue reaction as described previously. Skin samples were incubated overnight in 7% potassium ferrocyanide dissolved in 3% hydrochloric acid. […]

[3] = test system: HbSS BERK mice; test: Excisional wound healing in sickle cell mice; type: in vivo, mouse; conditions: 6 mm full-thickness excisional wounds, daily treatment, mean±s.e.m., in days
Excerpt: The proposed mechanism for healing was investigated using a sickle cell mouse study (Rodrigues et al. publication pending). In this study, transgenic sickle cell mouse model, HbSS-BERK, were used to determine the effectiveness of DIDP. […] They recapitulate human sickle cell disease including hemolysis, reticulocytosis, anemia, extensive organ damage, shortened life span and pain.
Mice. […] These mice simulate human sickle cell disease including hemolysis, reticulocytosis, anemia, extensive organ damage, shortened life span and pain26-28. HbSS-BERK mice were bred and phenotyped for human sickle hemoglobin. Genotyping for the knockout and hemoglobin transgenes was performed. Control mice (wild type) on a C57/Bl6 background [#000664] were also obtained.
DFO delivery device. A transdermal delivery system was used to deliver DFO into the dermal tissue of the mice. […]
Excisional wound healing. Five-month old male HbSS BERK and wild type mice were subjected to a quantitative and reproducible model of excisional wounding using an established protocol described in Galioano et al., Wound Repair Regen 12, 485-492, doi:10.1111/j.1067-1927.2004.12404.x (2004). […]
Wound treatment. […] Wound area was measured using Image J software (NIH). […]

CC(=O)N(O)CCCCCNC(=O)CCC(=O)N(O)CCCCCNC(=O)CCC(=O)N(O)CCCCCN [DFO, deferoxamine]
Toxicity in adult or pediatric patients [1]: no evidence of toxicity
Human skin permeation (stratum corneum / dermal accumulation) [2]: no permeation of the stratum corneum
Time to complete wound closure [3]: 14.5 ± 0.6268
